Data set [1] deals with T1, HbIII (Phacoides pectinatus, UniProt P41262).
T1 sequence (P41262 1-153): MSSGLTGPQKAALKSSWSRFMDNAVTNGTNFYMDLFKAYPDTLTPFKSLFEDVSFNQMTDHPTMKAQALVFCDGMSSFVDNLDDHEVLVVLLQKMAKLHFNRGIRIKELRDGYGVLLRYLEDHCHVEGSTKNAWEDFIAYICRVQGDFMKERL
Conditions: read-out: Equilibrium dissociation constant (Kd), pH 7.5; cited from earlier work.

For data set [2], the target named is T2, HbI (Phacoides pectinatus, UniProt P41260). As to conditions: cited from earlier work.
For data set [3] the following is noted: cited from earlier work.
For data set [4], the target named is T3, HbII (Phacoides pectinatus, UniProt P41261).
T3 sequence (P41261 1-151): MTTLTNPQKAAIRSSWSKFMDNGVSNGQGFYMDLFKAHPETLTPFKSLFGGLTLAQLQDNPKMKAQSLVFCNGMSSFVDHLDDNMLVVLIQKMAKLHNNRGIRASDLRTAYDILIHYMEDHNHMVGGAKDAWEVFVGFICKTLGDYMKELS
Conditions: read-out: Equilibrium dissociation constant (Kd), pH 7.5; cited from earlier work.

A further data set deals with HHMb. Conditions: read-out: Equilibrium dissociation constant (Kd), pH 7.5; cited from earlier work.
Data set [5] deals with T3, HbII. As to conditions: read-out: Equilibrium dissociation constant (Kd), pH 7.5; cited from earlier work. This is another data set of the same source.
The target of data set [6] is T1, HbIII. As to conditions: read-out: Equilibrium dissociation constant (Kd), pH 7.5; cited from earlier work. This is another data set of the same source.
Data set [7] has as its target T2, HbI. Conditions: read-out: Equilibrium dissociation constant (Kd), pH 7.5; cited from earlier work.
A further data set addresses adult hemoglobin (A-Hb) (Homo sapiens, UniProt P68871+P69905). Kind of data set: biochemical. As to conditions: Measured fluoride binding dissociation constant (Kd).
The target in data set [8] is T3, HbII. Kind of data set: biochemical.
In data set [9] the target is T1, HbIII. Kind of data set: biochemical.
For data set [10], the target named is T2, HbI. As to conditions: pH 4 to 7 range.
The target in data set [11] is T2, HbI. The data set can be described thus: biochemical. Conditions: Measured fluoride binding dissociation constant (Kd), pH 5.0.
Data set [12] deals with horse heart myoglobin (Mb) (Equus caballus, UniProt P68082). Kind of data set: biochemical.
Chain of horse heart myoglobin (Mb) (P68082 whole entry): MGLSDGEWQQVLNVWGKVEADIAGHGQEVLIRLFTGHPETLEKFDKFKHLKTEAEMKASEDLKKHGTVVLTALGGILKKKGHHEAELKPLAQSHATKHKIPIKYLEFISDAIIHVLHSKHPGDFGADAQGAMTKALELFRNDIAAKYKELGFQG
The format of data set [13] is physicochemical. Conditions: for % folded protein: below pH 4.4; for pKa of acid denaturation: sigmoidal-Boltzmann fit of % folded protein vs pH.
Another data set relates to His64. Kind of data set: other. Conditions: ferric heme-bound fluoride complex; cited from earlier work.
Setting [14] is: Equilibrium dissociation constant (Kd), pH 7.5.
The mark [15] stands for this setting: Measured fluoride binding dissociation constant (Kd), pH 5.0.
Setting [16] is: Measured fluoride binding dissociation constant (Kd), pH 7.0.

Where two headings read alike, the source gives them in different places.

T2 sequence (P41260 whole entry): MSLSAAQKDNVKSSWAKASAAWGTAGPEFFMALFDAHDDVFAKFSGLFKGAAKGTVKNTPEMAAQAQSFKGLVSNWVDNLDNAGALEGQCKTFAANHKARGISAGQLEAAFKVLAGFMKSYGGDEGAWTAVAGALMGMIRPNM
Chain of adult hemoglobin (A-Hb) (P69905 2-142 limits assumed): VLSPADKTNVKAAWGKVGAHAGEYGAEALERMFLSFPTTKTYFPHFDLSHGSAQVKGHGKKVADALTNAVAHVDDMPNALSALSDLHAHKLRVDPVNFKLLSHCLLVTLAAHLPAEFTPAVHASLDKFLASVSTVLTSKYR
Chain of adult hemoglobin (A-Hb) (P68871 2-147 limits assumed): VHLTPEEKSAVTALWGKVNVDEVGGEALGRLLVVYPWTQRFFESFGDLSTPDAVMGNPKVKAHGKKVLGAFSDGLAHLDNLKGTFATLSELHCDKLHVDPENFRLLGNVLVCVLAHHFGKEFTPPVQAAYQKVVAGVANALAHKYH

`S` [H2S, Hydrogen sulfide]: the Kd is above 0.016 mM at HbIII [1]; 3.4 nM at HbI [2] (read-out: Equilibrium dissociation constant (Kd), HbI, pH 7.5); 0.0145 mM on HbII [4]. Further, the “Affinity of HbI for H2S relative to HbII and HbIII” value at HbI [2] (HbI greater than HbII and HbIII) is 4,000 times. For the same molecule, the “pKa (H2S/HS^− equilibrium)” value in data set [3] was 7.0.
For the molecule `O=O` [O2, oxygen], the Kd at HHMb was 0.0013 mM; at HbII [5] it was 0.00028 mM; on HbIII [6], 0.00026 mM; at HbI [7], around 0.0004 mM.
Regarding `F` [fluoride, sodium fluoride], the Kd at adult hemoglobin (A-Hb) (pH 5.0) was determined as 9.3 ± 5.8 mM; on adult hemoglobin (A-Hb) (pH 7.0), 33 ± 4 mM; at HbII [8] (setting [14]), 3.7 mM; at HbII [8] (setting [15]), 0.33 ± 0.067 mM; on HbII [8] (setting [16]), 1 ± 0.156 mM; on HbIII [9] (Apparent Kd from non-linear fit, above pH 12) it was 4 mM. In addition, the Kd at HbIII [9] (setting [14]) is 2.9 mM; at HbIII [9] (setting [15]), 0.5 ± 0.332 mM; at HbIII [9] (setting [16]), 3.1 ± 0.37 mM; at HbI [11], 100 ± 61 mM; in [12] (Equilibrium dissociation constant (Kd), HHMb, pH 7.5), 41 mM; in data set [12] (Measured fluoride binding dissociation constant (Kd), Mb, pH 5.0), 3 ± 0.82 mM. The molecule further yielded a Kd in data set [12] (Measured fluoride binding dissociation constant (Kd), Mb, pH 7.0) of 25 ± 2.8 mM. Moreover, the “Fluoride affinity in HbI, lower than the other studied heme proteins” value on HbI [10] is on record as “about two orders of magnitude”.
As to “A-Hb: Adult hemoglobin purchased from Sigma-Aldrich”, in data set [13], the “% folded protein” value was “less than 50%” and the “pKa of acid denaturation” value came to 4.4.
For the molecule “Myoglobin (quoted literature values; species not stated in this article)”, the pKa in the data set with His64 was 5.3–5.7.

B1: Mb: horse heart (methods: horse skeletal muscle) myoglobin purchased from Sigma-Aldrich (protein, UniProt P68082 2-154, looked up)
Myoglobin: GLSDGEWQQVLNVWGKVEADIAGHGQEVLIRLFTGHPETLEKFDKFKHLKTEAEMKASEDLKKHGTVVLTALGGILKKKGHHEAELKPLAQSHATKHKIPIKYLEFISDAIIHVLHSKHPGDFGADAQGAMTKALELFRNDIAAKYKELGFQG
For B1, in data set [13], the “% folded protein” value is “less than 50%” and the “pKa of acid denaturation” value is given as 4.4.

The values above are taken from article PMC8463504 (Journal of inorganic biochemistry, 2021).
